Test results as given in patent US8354569B2, “Plant acyltransferases specific for long-chained, multiply unsaturated fatty acids” (University of Bristol, priority 2003, dated 2013).

How the values were obtained:
LPAAT [1] = assay: LPAAT acyl-CoA substrate specificity, Mortierella microsomal membranes; format: biochemical, Mortierella alpina; conditions: for Percentage incorporation in comparison with the incorporation of oleic acid: Mortierella LPAAT, 20 nmol acyl-CoA, sn-1-oleoyl-lysophosphatidic acid, DTNB assay
Procedure: (§1) Mortierella cultures were harvested after 5 days and placed on ice. All further procedures were carried out at 4° C. The mycelium was suspended in 0.1 M sodium phosphate buffer (pH 7.2), comprising 0.33 M sucrose, 0.1% BSA (free from fatty acids), 1000 units of catalase/ml and 1 mM Pefabloc. The following steps were carried out as described under “preparations of microsomal membranes from cotyledons of maturing seeds of sunflower and linseed”.
(§2) The specificity of the LPAAT was studied in order to verify whether the enzyme has a preference for certain acyl-CoAs, in particular to determine whether the LPAAT from oil seed plants converts LCPUFA-CoAs. […] The assay comprised sn-1-oleoyl-lysophosphatidic acid (30 nmol), DTNB (50 nmol) and 20 nmol of one of the following acyl-CoAs: palmitoyl-CoA (16:0-CoA), stearoyl-CoA (18:0-CoA), oleoyl-CoA (18:1-CoA), linoleoyl-CoA (18:2-CoA), dihomo-gamma-linolenyl-CoA (20:3-CoA) or arachidonyl-CoA (20:4-CoA) in 1 ml of 0.1 M phosphate buffer, pH 7.2. […] Microsomal membranes (equivalent to 10 μg of protein in the case of Mortierella and 40 μg of protein in the case of sunflower and linseed) were added to the reaction mixture in order to start the reaction.

GPAT [2] = assay: GPAT acyl-CoA substrate specificity, sunflower microsomal membranes; format: biochemical; conditions: for Percentage incorporation in comparison with the incorporation of oleic acid: 0.2 mM acyl-CoA, 5 mM [14C] G3P, 5 minutes
Procedure: (§3) All the procedures were carried out at 4° C. The cotyledons of maturing sunflower seeds and linseed were harvested approximately 10 days after anthesis and suspended in 0.1 M sodium phosphate buffer (pH 7.2), comprising 0.33 M sucrose and 0.1% BSA (free from fatty acids). After comminution in a glass homogenizer, the homogenate was centrifuged for 30 minutes at 20 000×g. The supernatant was filtered through one layer of Miracloth and centrifuged for 90 minutes in an ultracentrifuge at 100 000×g. The pelleted microsomal membranes were washed with 0.1 M sodium phosphate buffer (pH 7.2) and resuspended in a small volume of buffer, using a glass homogenizer. The microsomal membrane preparations were either immediately processed or stored at −80° C.
(§4) The specificity of the GPAT was studied to verify whether the enzyme has a preference for certain acyl-CoAs, in particular to determine whether the GPAT from oil seed plants converts LCPUFA-CoAs. Microsomal membranes were incubated with 0.5 mM (Mortierella) or 0.2 mM (sunflower and linseed) of one of the following acyl-CoAs: myristoyl-CoA (14:0-CoA), palmitoyl-CoA (16:0-CoA), palmitoleoyl-CoA (16:1-CoA), stearoyl-CoA (18:0-CoA), oleoyl-CoA (18:1-CoA), linoleoyl-CoA (18:2-CoA), dihomo-gamma-linolenoyl-CoA (20:3-CoA) or arachidonyl-CoA (20:4-CoA) and 5 mM [^14C] G3P. Microsomal membranes (equivalent to 50 μg of protein in the case of sunflower and Mortierella and 150 μg of protein in the case of linseed) were added to the reaction mixture in order to start the reaction. After incubation for 5 minutes, the lipids were extracted by the method of Bligh & Dyer, and the radioactivity incorporated in complex lipids was determined.

LPCAT [3] = assay: LPCAT acyl-CoA substrate specificity, linseed microsomal membranes; format: biochemical; conditions: for Percentage incorporation in comparison with the incorporation of oleic acid: 20 nmol acyl-CoA, sn-1-palmitolysophosphatidylcholine, DTNB assay
Procedure: as §3
(§5) LPCAT activity was determined in a continuous spectraphotometric assay in which 5,5-dithiobis-2-nitrobenzoate (DTNB) was used, and the change in absorption at 409 nm and 25° C. was monitored. The assay comprised sn-1-palmitolysophosphatidylcholine (30 nmol) as acyl acceptor, DTNB (50 nmol) and 20 nmol of one of the following acyl-CoAs: myristoyl-CoA (14:0-CoA), palmitoyl-CoA (16:0-CoA), palmitoleoyl-CoA (16:1-CoA), stearoyl-CoA (18:0-CoA), oleoyl-CoA (18:1-CoA), linoleoyl-CoA (18:2-CoA), dihomo-gamma-linolenyl-CoA (20:3-CoA) or arachidonyl-CoA (20:4-CoA) in 1 ml of 0.1 M phosphate buffer, pH 7.2. The reaction was started by addition of microsomal membrane preparation. The amount of microsomal membrane preparation added was 5 μg (Mortierella and sunflower) or 30 μg (linseed).

GPAT [4] = assay: GPAT acyl-CoA substrate specificity, Mortierella microsomal membranes; format: biochemical, Mortierella alpina; conditions: for Percentage incorporation in comparison with the incorporation of oleic acid: Mortierella GPAT, 0.5 mM acyl-CoA, 5 mM [14C] G3P, 5 minutes
Procedure: as §1, §4

LPCAT [5] = assay: LPCAT acyl-CoA substrate specificity, Mortierella microsomal membranes; format: biochemical, Mortierella alpina; conditions: for Percentage incorporation in comparison with the incorporation of oleic acid: Mortierella LPCAT, 20 nmol acyl-CoA, sn-1-palmitolysophosphatidylcholine, DTNB assay
Procedure: as §1, §5

LPAAT [6] = assay: LPAAT acyl-CoA substrate specificity, linseed microsomal membranes; format: biochemical; conditions: for Percentage incorporation in comparison with the incorporation of oleic acid: 20 nmol acyl-CoA, sn-1-oleoyl-lysophosphatidic acid, DTNB assay
Procedure: as §3, §2

LPCAT [7] = assay: LPCAT acyl-CoA substrate specificity, sunflower microsomal membranes; format: biochemical; conditions: for Percentage incorporation in comparison with the incorporation of oleic acid: 20 nmol acyl-CoA, sn-1-palmitolysophosphatidylcholine, DTNB assay
Procedure: as §3, §5

GPAT [8] = assay: GPAT acyl-CoA substrate specificity, linseed microsomal membranes; format: biochemical; conditions: for Percentage incorporation in comparison with the incorporation of oleic acid: 0.2 mM acyl-CoA, 5 mM [14C] G3P, 5 minutes
Procedure: as §3, §4

LPAAT [9] = assay: LPAAT acyl-CoA substrate specificity, sunflower microsomal membranes; format: biochemical; conditions: for Percentage incorporation in comparison with the incorporation of oleic acid: 20 nmol acyl-CoA, sn-1-oleoyl-lysophosphatidic acid, DTNB assay
Procedure: as §3, §2

## CCCCC/C=C\C/C=C\C/C=C\CCCCCCC(=O)SCCNC(=O)CCNC(=O)[C@H](O)C(C)(C)COP(=O)(O)OP(=O)(O)OC[C@H]1O[C@@H](n2cnc3c(N)ncnc32)[C@H](O)[C@@H]1OP(=O)(O)O [20:3-CoA, dihomo-gamma-linolenoyl-CoA]
LPAAT [1]
  Percentage incorporation in comparison with the incorporation of oleic acid: 65%
GPAT [2]
  Percentage incorporation in comparison with the incorporation of oleic acid: 55%
LPCAT [3]
  LPCAT activity (in words): no LPCAT activity was detected
  Percentage incorporation in comparison with the incorporation of oleic acid: 0%
GPAT [4]
  Percentage incorporation in comparison with the incorporation of oleic acid: 80%
LPCAT [5]
  Percentage incorporation in comparison with the incorporation of oleic acid: 85%

## CCCCC/C=C\C/C=C\C/C=C\C/C=C\CCCC(=O)SCCNC(=O)CCNC(=O)[C@H](O)C(C)(C)COP(=O)(O)OP(=O)(O)OC[C@H]1O[C@@H](n2cnc3c(N)ncnc32)[C@H](O)[C@@H]1OP(=O)(O)O [Arachidonoyl-CoA, arachidonyl-CoA]
LPAAT [6]
  Percentage incorporation in comparison with the incorporation of oleic acid: 19%
LPCAT [7]
  Percentage incorporation in comparison with the incorporation of oleic acid: 4%
LPAAT [1]
  Percentage incorporation in comparison with the incorporation of oleic acid: 65%
GPAT [8]
  Percentage incorporation in comparison with the incorporation of oleic acid: 5%
GPAT [2]
  Percentage incorporation in comparison with the incorporation of oleic acid: 23%
LPAAT [9]
  Percentage incorporation in comparison with the incorporation of oleic acid: 18%
LPCAT [3]
  LPCAT activity (in words): no LPCAT activity was detected
  Percentage incorporation in comparison with the incorporation of oleic acid: 0%
GPAT [4]
  Percentage incorporation in comparison with the incorporation of oleic acid: 75%
LPCAT [5]
  Percentage incorporation in comparison with the incorporation of oleic acid: 90%

## CCCCC/C=C\C/C=C\CCCCCCCC(=O)SCCNC(=O)CCNC(=O)[C@H](O)C(C)(C)COP(=O)(O)OP(=O)(O)OC[C@H]1O[C@@H](n2cnc3c(N)ncnc32)[C@H](O)[C@@H]1OP(=O)(O)O [Linoleoyl-CoA, linoleoyl-CoA]
LPAAT [6]
  Percentage incorporation in comparison with the incorporation of oleic acid: 120%
LPCAT [7]
  Percentage incorporation in comparison with the incorporation of oleic acid: 120%
LPAAT [1]
  Percentage incorporation in comparison with the incorporation of oleic acid: 90%
GPAT [8]
  Percentage incorporation in comparison with the incorporation of oleic acid: 90%
GPAT [2]
  Percentage incorporation in comparison with the incorporation of oleic acid: 85%
LPAAT [9]
  Percentage incorporation in comparison with the incorporation of oleic acid: 250%
LPCAT [3]
  LPCAT activity (in words): converted equally efficiently
  Percentage incorporation in comparison with the incorporation of oleic acid: 100%
GPAT [4]
  Percentage incorporation in comparison with the incorporation of oleic acid: 90%
LPCAT [5]
  Percentage incorporation in comparison with the incorporation of oleic acid: 40%

## CCCCCCCCCCCCCC(=O)SCCNC(=O)CCNC(=O)[C@H](O)C(C)(C)COP(=O)(O)OP(=O)(O)OC[C@H]1O[C@@H](n2cnc3c(N)ncnc32)[C@H](O)[C@@H]1OP(=O)(O)O [Myristoyl-CoA, myristoyl-CoA]
LPAAT [6]
  Percentage incorporation in comparison with the incorporation of oleic acid: 30%
LPCAT [7]
  Percentage incorporation in comparison with the incorporation of oleic acid: 1%
LPAAT [1]
  Percentage incorporation in comparison with the incorporation of oleic acid: 55%
GPAT [8]
  Percentage incorporation in comparison with the incorporation of oleic acid: 100%
GPAT [2]
  Percentage incorporation in comparison with the incorporation of oleic acid: 57%
LPAAT [9]
  Percentage incorporation in comparison with the incorporation of oleic acid: 16%
LPCAT [3]
  Percentage incorporation in comparison with the incorporation of oleic acid: 0%
LPCAT [5]
  Percentage incorporation in comparison with the incorporation of oleic acid: 0%

## CCCCCCCC/C=C\CCCCCCCC(=O)SCCNC(=O)CCNC(=O)[C@H](O)C(C)(C)COP(=O)(O)OP(=O)(O)OC[C@H]1O[C@@H](n2cnc3c(N)ncnc32)[C@H](O)[C@@H]1OP(=O)(O)O [Oleoyl-CoA, oleoyl-CoA]
LPAAT [6]
  Rate of the incorporation of oleic acid: 25 nmol/min/mg protein
  Percentage incorporation in comparison with the incorporation of oleic acid: 100%
LPCAT [7]
  Rate of the incorporation of oleic acid: 360 nmol/min/mg protein
  Percentage incorporation in comparison with the incorporation of oleic acid: 100%
LPAAT [1]
  Percentage incorporation in comparison with the incorporation of oleic acid: 100%
LPAAT [1]; Mortierella alpina LPAAT
  Rate of the incorporation of oleic acid: 51 nmol/min/mg protein
GPAT [8]
  Rate of the incorporation of oleic acid: 6 nmol/min/mg protein
  Percentage incorporation in comparison with the incorporation of oleic acid: 100%
GPAT [2]
  Rate of the incorporation of oleic acid: 13 nmol/min/mg protein
  Percentage incorporation in comparison with the incorporation of oleic acid: 100%
LPAAT [9]
  Rate of the incorporation of oleic acid: 28 nmol/min/mg protein
  Percentage incorporation in comparison with the incorporation of oleic acid: 100%
LPCAT [3]
  LPCAT activity (in words): converted equally efficiently
  Rate of the incorporation of oleic acid: 9 nmol/min/mg protein
  Percentage incorporation in comparison with the incorporation of oleic acid: 100%
GPAT [4]
  Percentage incorporation in comparison with the incorporation of oleic acid: 100%
GPAT [4]; Mortierella alpina GPAT
  Rate of the incorporation of oleic acid: 30 nmol/min/mg protein
LPCAT [5]
  Percentage incorporation in comparison with the incorporation of oleic acid: 100%
LPCAT [5]; Mortierella alpina LPCAT
  Rate of the incorporation of oleic acid: 350 nmol/min/mg protein

## CCCCCC/C=C\CCCCCCCC(=O)SCCNC(=O)CCNC(=O)[C@H](O)C(C)(C)COP(=O)(O)OP(=O)(O)OC[C@H]1O[C@@H](n2cnc3c(N)ncnc32)[C@H](O)[C@@H]1OP(=O)(O)O [Palmitololeoyl-CoA, palmitoleoyl-CoA]
LPAAT [6]
  Percentage incorporation in comparison with the incorporation of oleic acid: 140%
LPCAT [7]
  Percentage incorporation in comparison with the incorporation of oleic acid: 90%
LPAAT [1]
  Percentage incorporation in comparison with the incorporation of oleic acid: 70%
LPAAT [9]
  Percentage incorporation in comparison with the incorporation of oleic acid: 140%
LPCAT [3]
  Percentage incorporation in comparison with the incorporation of oleic acid: 180%
LPCAT [5]
  Percentage incorporation in comparison with the incorporation of oleic acid: 60%

## CCCCCCCCCCCCCCCC(=O)SCCNC(=O)CCNC(=O)[C@H](O)C(C)(C)COP(=O)(O)OP(=O)(O)OC[C@H]1O[C@@H](n2cnc3c(N)ncnc32)[C@H](O)[C@@H]1OP(=O)(O)O [Palmitoyl-CoA, palmitoyl-CoA]
LPAAT [6]
  Percentage incorporation in comparison with the incorporation of oleic acid: 25%
LPCAT [7]; listed as SSA Palmitoyl-CoA
  Percentage incorporation in comparison with the incorporation of oleic acid: 13%
LPAAT [1]
  Percentage incorporation in comparison with the incorporation of oleic acid: 40%
GPAT [8]
  Percentage incorporation in comparison with the incorporation of oleic acid: 90%
GPAT [2]
  Percentage incorporation in comparison with the incorporation of oleic acid: 64%
LPAAT [9]
  Percentage incorporation in comparison with the incorporation of oleic acid: 15%
LPCAT [3]
  Percentage incorporation in comparison with the incorporation of oleic acid: 5%
GPAT [4]
  Percentage incorporation in comparison with the incorporation of oleic acid: 66%
LPCAT [5]
  Percentage incorporation in comparison with the incorporation of oleic acid: 25%

## CCCCCCCCCCCCCCCCCC(=O)SCCNC(=O)CCNC(=O)[C@H](O)C(C)(C)COP(=O)(O)OP(=O)(O)OC[C@H]1O[C@@H](n2cnc3c(N)ncnc32)[C@H](O)[C@@H]1OP(=O)(O)O [Stearoyl-CoA, stearoyl-CoA]
LPAAT [6]
  Percentage incorporation in comparison with the incorporation of oleic acid: 30%
LPCAT [7]
  Percentage incorporation in comparison with the incorporation of oleic acid: 18%
LPAAT [1]
  Percentage incorporation in comparison with the incorporation of oleic acid: 36%
GPAT [8]
  Percentage incorporation in comparison with the incorporation of oleic acid: 65%
GPAT [2]
  Percentage incorporation in comparison with the incorporation of oleic acid: 40%
LPAAT [9]
  Percentage incorporation in comparison with the incorporation of oleic acid: 14%
LPCAT [3]
  Percentage incorporation in comparison with the incorporation of oleic acid: 15%
GPAT [4]
  Percentage incorporation in comparison with the incorporation of oleic acid: 50%
LPCAT [5]
  Percentage incorporation in comparison with the incorporation of oleic acid: 10%
